# How the values were obtained:
# Format in all cases: in vivo
# [1] = tested on: annual ragweed (Ambrosia artemisiifolia L.); experiment: Test Example 6: soil treatment, annual ragweed pot test; details: 28th day after treatment, read-out: Growth inhibition rate of annual ragweed (%) Measured value
# Method: (§1) Upland field soil was put into a 1/300,000 ha pot, and seeds of annual ragweed (Ambrosia artemisiifolia L.) were sown. On the next day, predetermined amounts of the above formulations respectively containing nicosulfuron, prosulfuron and bromoxynil-octanoate were diluted with water (in an amount corresponding to 1,000 L/ha) and applied for soil treatment by a small sprayer.
# [2] = tested on: velvetleaf (Abutilon theophrasti Medic.); experiment: Test Example 11: foliar treatment, velvetleaf pot test; details: read-out: Growth inhibition rate of velvetleaf (%) Measured value
# Method: Upland field soil was put into a 1/1,000,000 ha pot, and seeds of velvetleaf (Abutilon theophrasti Medic.) were sown. When the velvetleaf reached 5.0 to 5.3-leaf stage, predetermined amounts of the above formations respectively containing nicosulfuron, prosulfuron, dicamba, bromoxynil-octanoate and bicyclopyrone were diluted with water (in an amount corresponding to 300 L/ha) and applied for foliar treatment by a small sprayer.
# [3] = tested on: black nightshade (Solanum nigrum L.); experiment: Test Example 5: soil treatment, black nightshade pot test; details: 28th day after treatment, read-out: Growth inhibition rate of black nightshade (%) Measured value
# Source text: Upland field soil was put into a 1/300,000 ha pot, and seeds of black nightshade (Solanum nigrum L.) were sown. […] On the 28th day after treatment, the state of growth of the black nightshade was visually observed to determine the growth inhibition rate (%).
# [4] = tested on: korean lespedeza (Kummerowia stipulacea (Maxim.) Makino); experiment: Test Example 8: soil treatment, korean lespedeza pot test; details: read-out: Growth inhibition rate of korean lespedeza (%) Measured Value
# Method: as §1, with “korean lespedeza (Kummerowia stipulacea (Maxim.) Makino)” for “annual ragweed (Ambrosia artemisiifolia L.)”, “bicyclopyrone” for “bromoxynil-octanoate”
# [5] = tested on: prickly sida (Sida spinosa L.); experiment: Test Example 4: soil treatment, prickly sida pot test; details: read-out: Growth inhibition rate of prickly sida (%) Measured value
# Method: as §1, with “prickly sida (Sida spinosa” for “annual ragweed (Ambrosia artemisiifolia”, “prosulfuron, dicamba” for “prosulfuron”, “bicyclopyrone” for “bromoxynil-octanoate”
# [6] = tested on: ivy-leaved morningglory (Ipomoea hederacea (L.) Jacq.); experiment: Test Example 7: soil treatment, ivy-leaved morningglory pot test; details: read-out: Growth inhibition rate of ivy-leaved morningglory (%) Measured value
# Method: as §1, with “ivy-leaved morningglory (Ipomoea hederacea (L.) Jacq.)” for “annual ragweed (Ambrosia artemisiifolia L.)”, “bicyclopyrone” for “bromoxynil-octanoate”
# [7] = tested on: wild oat (Avena fatua L.); experiment: Test Example 3: soil treatment, wild oat pot test; details: 28th day after treatment, read-out: Growth inhibition rate of wild oat (%) Measured value
# Source text: (§2) Upland field soil was put into a 1/300,000 ha pot, and seeds of wild oat (Avena fatua L.) were sown. […] On the 28th day after treatment, the state of growth of the wild oat was visually observed to determine the growth inhibition rate (%).
# [8] = tested on: sunn-hemp (Crotalaria juncea L.); experiment: Test Example 1: soil treatment, sunn-hemp pot test; details: 28th day after treatment, read-out: Growth inhibition rate of sunn-hemp (%) Measured value
# Source text: On the 28th day after treatment, the state of growth of the sunn-hemp was visually observed to determine the growth inhibition rate (%) in accordance with the following evaluation standard. The growth inhibition rate (%) (measured value) and the growth inhibition rate (%) (calculated value) calculated by the Colby's formula are shown in Table 1.
# [9] = tested on: annual ragweed (Ambrosia artemisiifolia L.); experiment: Test Example 9: foliar treatment, annual ragweed pot test; details: foliar treatment at 6.0 to 8.0-leaf stage, 14th day after treatment, read-out: Growth inhibition rate of annual ragweed (%) Measured value
# Method: (§3) Upland field soil was put into a 1/1,000,000 ha pot, and seeds of annual ragweed (Ambrosia artemisiifolia L.) were sown. When the annual ragweed reached 6.0 to 8.0-leaf stage, predetermined amounts of the above formulations respectively containing nicosulfuron, prosulfuron and mesotrione were diluted with water (in an amount corresponding to 300 L/ha) and applied for foliar treatment by a small sprayer.
# On the 14th day after treatment, the state of growth of the annual ragweed was visually observed to determine the growth inhibition rate (%). The growth inhibition rate (%) (measured value) and the growth inhibition rate (%) calculated in the same manner as in the above Test Example 1 are shown in Table 9.
# [10] = tested on: common lespedeza (Lespedeza striata (Thunb.) Hook. et Arn.); experiment: Test Example 10: foliar treatment, common lespedeza pot test; details: Kummerowia striata, foliar treatment at 4.0-leaf stage, 14th day after treatment, read-out: Growth inhibition rate of common lespedeza (%) Measured value
# Method: as §3, with “common lespedeza (Lespedeza striata (Thunb.) Hook. et Arn.)” for “annual ragweed (Ambrosia artemisiifolia L.)”, “common lespedeza” for “annual ragweed”, “4.0-leaf” for “6.0 to 8.0-leaf”, “dicamba” for “mesotrione”
# [11] = tested on: wild oat (Avena fatua L.); experiment: Test Example 2: soil treatment, wild oat pot test; details: 28th day after treatment, read-out: Growth inhibition rate of wild oat (%) Measured value
# Source text: as §2
# [12] = dose 2.5 g/ha, soil treatment, 28th day after treatment
# [13] = soil treatment, 28th day after treatment
# [14] = dose 100 g/ha, soil treatment, 28th day after treatment
structure (smiles),measurement,setting,value
"CCCCCCCC(=O)Oc1c(Br)cc(C#N)cc1Br [Bromoxynil-octanoate, bromoxynil-octanoate]",inhibition at 100 g/ha,[1],0%
same,inhibition at 200 g/ha,[1]; dose 200 g/ha,0%
same,inhibition at 500 g/ha,[1]; dose 500 g/ha,0%
same,inhibition at 200 g/ha,"[2]; dose 200 g/ha, foliar treatment at 5.0 to 5.3-leaf stage, 20th day after treatment",5%
same,inhibition at 100 g/ha,[3]; dose 100 g/ha,0%
same,inhibition at 500 g/ha,[3]; dose 500 g/ha,0%
"COCCOCc1nc(C(F)(F)F)ccc1C(=O)C1=C(O)C2CCC(C2)C1=O (centres unmarked) [Bicyclopyrone, 4-hydroxy-3-{2-[(2-methoxyethoxy)methyl]-6-(trifluoromethyl)-3-pyridylcarbonyl}bicyclo[3.2.1]oct-3-en-2-one]",inhibition at 400 g/ha,[4]; soil,78%
same,inhibition at 100 g/ha,[2]; foliar,40%
same,inhibition at 25 g/ha,[5]; soil,25%
same,inhibition at 25 g/ha,[6]; soil,5%
same,inhibition at 400 g/ha,[6]; soil,25%
"COc1nc(C)nc(NC(=O)NS(=O)(=O)c2ccccc2CCC(F)(F)F)n1 [Prosulfuron, 1-(4-methoxy-6-methyl-1,3,5-triazin-2-yl)-3-[2-(3,3,3-trifluoropropyl)phenylsulfonyl]urea]",inhibition at 15 g/ha,[7]; dose 15 g/ha,0%
same,inhibition at 2.5 g/ha,[1]; dose 2.5 g/ha,78%
same,inhibition at 15 g/ha,[1]; dose 15 g/ha,93%
same,inhibition at 50 g/ha,[8]; dose 50 g/ha,60%
same,inhibition at 2.5 g/ha,[4]; [12],50%
same,inhibition at 50 g/ha,[3]; dose 50 g/ha,20%
same,inhibition at 10 g/ha,[9]; dose 10 g/ha,55%
same,inhibition at 15 g/ha,[9]; dose 15 g/ha,53%
same,inhibition at 2.5 g/ha,[5]; [12],20%
same,inhibition at 15 g/ha,"[5]; dose 15 g/ha, soil treatment, 28th day after treatment",20%
same,inhibition at 50 g/ha,[5]; [13],40%
same,inhibition at 50 g/ha,"[6]; dose 50 g/ha, soil treatment, 14th day after treatment",50%
same,inhibition at 10 g/ha,[10]; dose 10 g/ha,10%
same,inhibition at 15 g/ha,[10]; dose 15 g/ha,13%
same,inhibition at 2.5 g/ha,[11]; dose 2.5 g/ha,0%
"CS(=O)(=O)c1ccc(C(=O)C2C(=O)CCCC2=O)c([N+](=O)[O-])c1 [Mesotrione, 2-(4-mesyl-2-nitrobenzoyl)cyclohexane-1,3-dione]",inhibition at 50 g/ha,[7]; dose 50 g/ha,0%
same,inhibition at 150 g/ha,[8]; dose 150 g/ha,30%
same,inhibition at 75 g/ha,[9]; dose 75 g/ha,25%
same,inhibition at 25 g/ha,[11]; dose 25 g/ha,0%
same,inhibition at 150 g/ha,[11]; dose 150 g/ha,0%
"COc1c(Cl)ccc(Cl)c1C(=O)O [Dicamba, dicamba]",inhibition at 150 g/ha,"[2]; dose 150 g/ha, foliar treatment at 5.0 to 5.3-leaf stage, 20th day after treatment",8%
same,inhibition at 50 g/ha,[5]; [13],0%
same,inhibition at 150 g/ha,"[5]; dose 150 g/ha, soil treatment, 28th day after treatment",20%
same,inhibition at 400 g/ha,"[5]; dose 400 g/ha, soil treatment, 28th day after treatment",40%
same,inhibition at 100 g/ha,[10]; dose 100 g/ha,23%
same,inhibition at 150 g/ha,[10]; dose 150 g/ha,50%
"COc1cc(OC)nc(NC(=O)NS(=O)(=O)c2ncccc2C(=O)N(C)C)n1 [Nicosulfuron, 2-(4,6-dimethoxypyrimidin-2-ylcarbamoylsulfamoyl)-N,N-dimethylnicotinamide]",inhibition at 30 g/ha,[7]; dose 30 g/ha,70%
same,inhibition at 30 g/ha,[1]; dose 30 g/ha,0%
same,inhibition at 100 g/ha,[1],0%
same,inhibition at 10 g/ha,[8]; dose 10 g/ha,30%
same,inhibition at 100 g/ha,[4]; [14],30%
same,inhibition at 10 g/ha,[3]; dose 10 g/ha,20%
same,inhibition at 30 g/ha,[9]; dose 30 g/ha,0%
same,inhibition at 10 g/ha,"[5]; dose 10 g/ha, soil treatment, 28th day after treatment",10%
same,inhibition at 30 g/ha,"[5]; dose 30 g/ha, soil treatment, 28th day after treatment",10%
same,inhibition at 100 g/ha,[5]; [14],20%
same,inhibition at 10 g/ha,"[6]; dose 10 g/ha, soil treatment, 14th day after treatment",0%
same,inhibition at 30 g/ha,[10]; dose 30 g/ha,5%
same,inhibition at 100 g/ha,[11]; dose 100 g/ha,80%
